This note sets out measurements from PMC7316143 (Drug testing and analysis, 2018).

What all share (type): biochemical
Experiment [1] addresses T1, NET (Rattus norvegicus, UniProt Q63380). In words: [3H]MPP+ release at NET in rat brain synaptosomes. Particulars: for Emax: read-out: Release at NET % Emax.
In experiment [2] the target is T2, DAT (Rattus norvegicus, UniProt P23977). In words: [3H]MPP+ release at DAT in rat brain synaptosomes. The settings on record: for DAT/SERT ratio (release): (DAT EC50^-1)/(SERT EC50^-1), higher value indicates greater DAT selectivity; for Emax: read-out: Release at DAT % Emax.
T2 sequence (P23977 whole entry): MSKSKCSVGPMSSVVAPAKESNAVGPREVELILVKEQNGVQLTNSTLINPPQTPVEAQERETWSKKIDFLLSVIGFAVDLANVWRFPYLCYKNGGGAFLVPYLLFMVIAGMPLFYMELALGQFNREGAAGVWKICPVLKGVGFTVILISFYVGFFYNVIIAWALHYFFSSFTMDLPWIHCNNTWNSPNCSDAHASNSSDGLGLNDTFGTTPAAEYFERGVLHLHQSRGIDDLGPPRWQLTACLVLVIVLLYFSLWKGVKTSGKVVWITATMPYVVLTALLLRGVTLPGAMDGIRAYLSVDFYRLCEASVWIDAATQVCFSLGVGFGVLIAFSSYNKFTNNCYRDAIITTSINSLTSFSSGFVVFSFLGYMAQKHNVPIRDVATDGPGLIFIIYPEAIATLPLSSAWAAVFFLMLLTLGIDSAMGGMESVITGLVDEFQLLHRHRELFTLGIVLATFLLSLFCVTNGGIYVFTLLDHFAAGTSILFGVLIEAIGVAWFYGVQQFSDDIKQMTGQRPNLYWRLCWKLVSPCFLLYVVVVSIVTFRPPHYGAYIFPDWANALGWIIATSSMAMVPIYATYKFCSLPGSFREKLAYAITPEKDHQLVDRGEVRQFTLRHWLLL
In experiment [3] the target is T2, DAT. In words: [3H]dopamine uptake inhibition at DAT in rat brain synaptosomes. The settings on record: for DAT/SERT ratio (uptake inhibition): (DAT IC50^-1)/(SERT IC50^-1), higher value indicates greater DAT selectivity; for IC50: [3H]Dopamine uptake at DAT IC50, rat caudate synaptosomes, 5 nM [3H]dopamine, mean ± SD, N=3.
Experiment [4] has as its target T3, SERT (Rattus norvegicus, UniProt P31652). In words: [3H]5-HT release at SERT in rat brain synaptosomes. The settings on record: for Emax: read-out: Release at SERT % Emax.
The target of experiment [5] is T1, NET. In words: [3H]norepinephrine uptake inhibition at NET in rat brain synaptosomes. Particulars: [3H]Norepinephrine uptake at NET IC50, rat brain synaptosomes, 10 nM [3H]norepinephrine; mean ± SD, N=3.
Experiment [6] deals with T3, SERT. In words: [3H]5-HT uptake inhibition at SERT in rat brain synaptosomes.

T1 sequence (Q63380 1-617): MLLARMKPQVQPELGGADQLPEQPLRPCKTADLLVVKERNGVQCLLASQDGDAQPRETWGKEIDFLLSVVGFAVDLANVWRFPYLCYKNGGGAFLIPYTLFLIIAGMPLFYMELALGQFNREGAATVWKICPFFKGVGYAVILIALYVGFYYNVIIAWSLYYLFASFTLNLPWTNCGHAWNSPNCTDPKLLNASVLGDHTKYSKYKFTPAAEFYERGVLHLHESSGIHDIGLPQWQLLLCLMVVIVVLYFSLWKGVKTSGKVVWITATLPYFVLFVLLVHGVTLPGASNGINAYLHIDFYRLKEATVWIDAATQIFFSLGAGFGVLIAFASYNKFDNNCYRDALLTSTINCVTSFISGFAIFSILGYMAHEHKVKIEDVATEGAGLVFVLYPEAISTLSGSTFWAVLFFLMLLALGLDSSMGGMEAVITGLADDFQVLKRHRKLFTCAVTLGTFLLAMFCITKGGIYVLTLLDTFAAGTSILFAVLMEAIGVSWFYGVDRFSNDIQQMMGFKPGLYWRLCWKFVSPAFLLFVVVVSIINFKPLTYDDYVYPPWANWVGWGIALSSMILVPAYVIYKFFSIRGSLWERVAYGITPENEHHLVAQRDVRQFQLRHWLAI
T3 sequence (P31652 whole entry): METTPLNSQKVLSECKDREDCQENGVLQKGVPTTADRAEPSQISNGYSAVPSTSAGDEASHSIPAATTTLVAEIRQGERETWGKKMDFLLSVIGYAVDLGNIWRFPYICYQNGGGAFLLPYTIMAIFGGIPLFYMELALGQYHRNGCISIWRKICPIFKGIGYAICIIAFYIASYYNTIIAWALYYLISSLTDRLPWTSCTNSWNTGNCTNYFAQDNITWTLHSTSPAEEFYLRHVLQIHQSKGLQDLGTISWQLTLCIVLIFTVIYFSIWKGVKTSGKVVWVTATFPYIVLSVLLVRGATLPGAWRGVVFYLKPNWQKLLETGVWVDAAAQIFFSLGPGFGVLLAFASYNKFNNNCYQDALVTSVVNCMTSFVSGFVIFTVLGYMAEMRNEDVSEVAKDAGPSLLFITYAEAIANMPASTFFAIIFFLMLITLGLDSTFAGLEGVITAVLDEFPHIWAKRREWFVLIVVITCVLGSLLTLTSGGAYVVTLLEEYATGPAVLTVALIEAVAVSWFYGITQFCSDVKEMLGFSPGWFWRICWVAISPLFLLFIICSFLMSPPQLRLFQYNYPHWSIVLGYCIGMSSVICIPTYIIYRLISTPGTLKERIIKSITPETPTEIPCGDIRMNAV

One may read the EC50 as the concentration at which the effect is half-maximal. Higher therefore signals a need for much substance. One may read the Emax as the size of the effect at its maximum, as opposed to the concentration needed. The IC50 is the concentration that gives 50% inhibition. A low value points to greater potency in that assay. In the case of `Cc1ccccc1C1OCCNC1C` (stereo not shown) [2-MPM, 3-Methyl-2-(2-methylphenyl)morpholine], the figures for the EC50 at NET [1], at DAT [2] and on SERT [4] were 102 ± 12 nM, 374 ± 38 nM and 1760 ± 336 nM, respectively. Besides, the Emax is 91% at NET [1], 104% on DAT [2] and 101% at SERT [4]. Also, the “DAT/SERT ratio (release)” value on DAT [2] came to 4.7. For the same compound, the “DAT/SERT ratio (uptake inhibition)” value on DAT [3] is recorded as 0.6. Besides, the IC50 was found to be 6590 ± 1310 nM against DAT [3], 2600 ± 633 nM on NET [5] and 4010 ± 317 nM against SERT [6].
`Cc1cccc(C2OCCNC2C)c1` (stereo not shown) [3-MPM, 3-Methyl-2-(3-methylphenyl)morpholine]: the EC50 on NET [1] is 509 ± 73 nM; at DAT [2] it was 1320 ± 218 nM; at SERT [4], 5380 ± 947 nM. Moreover, the maximum response (Emax) is 90% at NET [1], 110% on DAT [2] and 111% on SERT [4]. Also, on DAT [2], the “DAT/SERT ratio (release)” value is given as 4.1. The values for the IC50 against DAT [3], at NET [5] and on SERT [6] were more than 10000 nM, 5210 ± 1650 nM and more than 10000 nM, respectively.
In the case of `Cc1ccc(C2OCCNC2C)cc1` (stereo not shown) [4-MPM, 3-Methyl-2-(4-methylphenyl)morpholine], the EC50 at NET [1] amounted to 62 ± 9 nM; at DAT [2] it was 227 ± 30 nM; on SERT [4], 86 ± 12 nM. The maximal response (Emax) on NET [1] was 90%; on DAT [2] it was 99%; at SERT [4], 88%. For the same compound, on DAT [2], the “DAT/SERT ratio (release)” value amounted to 0.4. Besides, the “DAT/SERT ratio (uptake inhibition)” value at DAT [3] is 0.2. Besides, the values for the IC50 on DAT [3], at NET [5] and at SERT [6] were 1930 ± 207 nM, 1930 ± 392 nM and 408 ± 17 nM, respectively. Moreover, on DAT [3] (relative to 2-MPM), the “fold more potent than 2-MPM at DAT (uptake inhibition)” value was “about 3.5 fold”. Also, on SERT [6] (relative to 2-MPM and phenmetrazine), the “fold more potent than 2-MPM and phenmetrazine at SERT (uptake inhibition)” value was approximately 10 fold.
In the case of `CC1NCCOC1c1ccccc1` (stereo not shown) [Phenmetrazine, 3-methyl-2-phenylmorpholine, reference compound], the EC50 was 29 ± 4 nM at NET [1], 70 ± 9 nM on DAT [2] and more than 10000 nM at SERT [4]. Besides, the maximum response (Emax) at NET [1] is 95%; on DAT [2] it was 101%. For the same compound, the IC50 on DAT [3] is 933 ± 57 nM; at NET [5], 1160 ± 197 nM; against SERT [6] it was 3570 ± 836 nM. The “releaser activity at SERT (in words)” value at SERT [4] (rat brain synaptosomes) is reported as “negligible activity”.
